In US20040248913A1, “(Pyridinyl and pyrimidyl) trienoic acid derivatives as retinoid x receptor modulators” (priority 2001, published 2004):

Key:
RXRα:RAR heterodimer = assay: RXR:RAR heterodimer cotransfection assay in CV-1 cells; type: cell-based, human; settings: alone
Source text: In the co-transfection assay, cloned cDNA for one or more IRs (e.g., human RARα, RXRα, or PPARγ), alone or in combination (i.e. for heterodimer assays) under the control of a constitutive promoter (e.g., the SV 40, RSV or CMV promoter) is introduced by transfection (a procedure to introduce exogenous genes into cells) into a background cell substantially devoid of endogenous IRs. These introduced gene(s) direct the recipient cells to make the IR protein(s) of interest. A further gene is also introduced (co-transfected) into the same cells in conjunction with the IR gene(s). This further gene, comprising the cDNA for a reporter protein, such as firefly luciferase (LUC), controlled by an appropriate hormone responsive promoter containing a hormone response element (HRE). This reporter plasmid functions as a reporter for the transcriptional-modulating activity of the target IR(s). Thus, the reporter acts as a surrogate for the products (mRNA then protein) normally expressed by a gene under control of the target receptor(s) and their native hormone(s).
Compounds of the present invention were also tested for the ability to synergize with an RAR or PPARγ agonist in the context of an RXR heterodimer. […] Efficacy of the compounds of the present invention in the agonist and synergy assays was calculated as the maximum response obtained over the range of the dose response curve relative to the maximum response obtained by the reference agonist. Antagonist efficacy was determined as a function (%) of maximal inhibition.
RAR suppresses RXR ligand binding and transactivation of typical RXR agonists via allosteric interactions. […] However, when RAR is occupied, typical RXR agonists activate the heterodimer. […] To examine the effects of the compounds of the present invention on the transcriptional properties of the RXR:RAR heterodimer, a heterodimer cotransfection assay as described above was employed.

[1] = system: mice transgenic for the human apolipoprotein A-I gene; assay: Transgenic mice carrying the human apo A-I gene; type: in vivo, mouse
Source text: Mice transgenic for the human apolipoprotein A-I gene (obtained from Jackson Laboratory) are used to evaluate PPARγ mediated effects on high density lipoprotein (HDL) cholesterol. The mice are handled as described above for db/db mice, except that they are fed Purina 5001.

rodent models of NIDDM = assay: Rodent models of NIDDM / Type II Diabetes; type: in vivo
Source text: (§1) Rodents that are genetically defective in the leptin pathway are commonly used as animal models of non-insulin dependant diabetes mellitus (NIDDM). db/db mice and ZDF rats develop frank diabetes that progresses to include β-cell failure and the accompanying precipitous drop in plasma insulin levels. […] All three rodent models were used to examine the efficacy of oral dosing with compounds of the invention on diabetes, insulin sensitivity, food consumption and body weight gain.
(§2) Mice (obtained from Jackson Laboratory), ZDF rats (obtained from Genetic Models Inc.) and fa/fa rats (obtained from either Charles River, or Harlan) are maintained on 12-hour light/dark cycle. Mice (age 28-42 days) are caged in groups of 5-6. Rats (age 7 weeks) are housed individually. All animals are allowed ad libitum access to water and food (Purina 5015 for mice and 5008 for rats). Compounds are administered at the specified doses by oral gavage on the morning of each day of any experiment. Blood samples are obtained 3 hours after dosing from fed animals under anesthesia and collected into heparinized capillary tubes from the tail vein.
On the other hand, full antagonists have no effect on glucose, triglycerides or the thyroid status in these same model systems. We have identified a specific subset of rexinoids that maintain the desirable insulin sensitizing activity and eliminate both the suppression of the thyroid axis and triglyceride elevations. These compounds are heterodimer selective modulators of RXR activity. They bind to RXR with high affinity (generally Ki<50 nM) and produce potent synergistic activation of the RXR:PPARγ heterodimer. This synergistic activation of PPARγ in vitro is presumably a major determinant of the antidiabetic efficacy of compounds in vivo.

db/db mice = assay: db/db mice, daily oral gavage; type: in vivo, mouse; settings: 7 week old db/db mice
Source text: as §1, §2

Structure (SMILES): CC1=C(/C=C/C(C)=C/C=C/C(C)=C/C(=O)O)C(C)(C)CCC1 [ATRA, all-trans retinoic acid, reference compound]
- RXR:RAR agonist activity / transactivation alone (in words) (RXRα:RAR heterodimer): strongly transactivate

Structure (SMILES): Cc1cc2c(cc1C1(c3ccc(C(=O)O)cn3)CC1)C(C)(C)CCC2(C)C [LG100268]
- Triglycerides [1]: raises triglycerides
- Blood glucose levels (rodent models of NIDDM): lower blood glucose levels
- Insulin sensitizing activity (rodent models of NIDDM): efficacious insulin sensitizers
- Thyroid hormone axis (rodent models of NIDDM): suppress the thyroid hormone axis
- Triglycerides (rodent models of NIDDM): raise triglycerides

Structure (SMILES): C/C(=C\c1ccc(C(=O)O)cc1)c1ccc2c(c1)C(C)(C)CCC2(C)C [TTNPB, (E)-4-[2-(5,6,7,8-tetrahydro-5,5,8,8-tetramethyl-2-naphthalenyl)-1-propenyl]benzoic acid, reference compound]
- RXR:RAR agonist activity / transactivation alone (in words) (RXRα:RAR heterodimer): strongly transactivate

Structure (SMILES): CN(C)C(=N)N=C(N)N [metformin]
- Plasma glucose (db/db mice; 300 mg/kg by daily oral gavage): lowers plasma glucose
- Efficacy on plasma glucose over time (db/db mice; 300 mg/kg daily, 3 weeks subsequent to first week): efficacy of metformin decreases
